Common to all, as to format: in vivo, human
In one test the test system is IL-12B mRNA. In words: RT-PCR of IL-12B mRNA in tape-stripped psoriatic lesions during Enbrel treatment. The conditions noted are these: week 8 of treatment. The method, then:
(§1) Patients were treated with Enbrel™ (Etanercept) over a period of months. Both before treatment commenced (week 0) and at various time points during treatment, a lesion was tape stripped using the synthetic rubber-based adhesive MA70 (Adhesives Research) on a polyurethane film. Adhesive strips were manufactured as circles of 17 mm diameter. Skin sites were sequentially stripped with 4 individual tapes, with each tape applied and removed once. The RNA isolated from the adherent cells on all 4 tapes (from one site) was pooled into one sample. Quantitation was by quantitative RT-PCR using the comparative method with β-actin mRNA as the internal normalizing mRNA standard and calibration achieved by using population average values for ΔCt in uninvolved skin of psoriatic subjects (Table 1).

A further test concerns GAPDH mRNA. In words: RT-PCR of GAPDH mRNA in tape-stripped psoriatic lesions during Enbrel treatment. The conditions noted are these: week 8 of treatment. As for the experimental part: as §1
The next test concerns IFNγ mRNA. In words: RT-PCR of IFNγ mRNA in tape-stripped psoriatic lesions during Enbrel treatment. The conditions noted are these: week 8 of treatment. As for the experimental part:
as §1

In another test the test system is TNFα mRNA. The test can be described thus: RT-PCR of TNFα mRNA in tape-stripped psoriatic lesions during Enbrel treatment. The conditions noted are these: week 8 of treatment. As for the experimental part:
as §1

For another test, the system named is psoriasis. In words: Clinical assessment of psoriasis (NPF Score) during Enbrel treatment. On the set-up: NPF Score: scale not given here. The method, then: as §1
Rather than calibrate the lesion samples to uninvolved skin of each patient, we have chosen to calibrate to population average values to gain a fold-change relative to non-psoriatic skin. The results of calibrating to each patient's uninvolved skin values were virtually identical (data not shown). […] Thus, positive changes in ΔCt values of these specific mRNAs are negatively correlated with the change from baseline at week 8 in NPF scores. […] In order to assess the significance this observation, the AC, and NPF data in Table 10 was analyzed.

Another test has as its system IL-23A mRNA. In words: RT-PCR of IL-23A mRNA in tape-stripped psoriatic lesions during Enbrel treatment. The conditions noted are these: week 8 of treatment. The method, then:
as §1

The mark [1] stands for this setting: psoriatic lesion, tape-harvested RNA, relative to β-actin mRNA, one value per patient (P2-P7).

Values joined by “and” are separate entries in the source; they are usually repeats but may differ in a detail not shown here. Identical values can stand only once.

Take Enbrel: in the test on IL-12B mRNA (IL-12B/β-actin mRNA ratio in lesion relative to population average of uninvolved skin, per patient), the “Fold Change (Pop-UIS), IL-12B mRNA” value is 0.51 fold and 9.45 fold and 5.31 fold and 11.24 fold and 27.86 fold and 105.42 fold. For the same substance, the “ΔCt (Lesion), IL-12B mRNA” value in the test with IL-12B mRNA (setting [1]) is 12.48 and 7.35 and 9.09 and >8.01 and 6.7 and 4.78. In the test with GAPDH mRNA (GAPDH/β-actin mRNA ratio in lesion relative to population average of uninvolved skin, per patient), the “Fold Change (Pop-UIS), GAPDH mRNA” value is 2.04 fold and 1.69 fold and 1.59 fold and 1.40 fold and 1.77 fold and 2.07 fold. Also, the “ΔCt (Lesion), GAPDH mRNA” value in the test on GAPDH mRNA (setting [1]) was 1.04 and 1.31 and 1.4 and 1.58 and 1.25 and 1.02. In the test on IFNγ mRNA (INFγ/β-actin mRNA ratio in lesion relative to population average of uninvolved skin, per patient), the “Fold Change (Pop-UIS), INFγ mRNA” value is 0.59 fold and 48.17 fold and 1.49 fold and 8.17 fold and 2.58 fold and 3.25 fold. Moreover, the “ΔCt (Lesion), INFγ mRNA” value in the test with IFNγ mRNA (setting [1]) was 11.27 and 4.91 and 9.92 and 7.47 and 9.13 and 8.8. Besides, the “Fold Change (Pop-UIS), TNFα mRNA” value in the test with TNFα mRNA (TNFα/β-actin mRNA ratio in lesion relative to population average of uninvolved skin, per patient) is 10.06 fold and 16.56 fold and 5.66 fold and 9.00 fold and 11.47 fold and 17.27 fold. Further, in the test on TNFα mRNA (setting [1]), the “ΔCt (Lesion), TNFα mRNA” value was 4.99 and 4.27 and 5.82 and 5.15 and 4.8 and 4.21. In the test with psoriasis (National Psoriasis Foundation Score at week 8 of treatment, one value per patient (P2-P7)), the “NPF Score” value was 10.7 (5×) and 10.3 (5×) and 16.7 (5×) and 18.7 (5×) and 11.7 (5×) and 12 (5×). Also, in the test with psoriasis (psoriatic patients, 8 weeks of treatment, negative indicates improvement in disease), the “change in NPF score from baseline to week 8” value was “negative”. For the same substance, in the test with IL-23A mRNA (IL-23A/β-actin mRNA ratio in lesion relative to population average of uninvolved skin, per patient), the “Fold Change (Pop-UIS), IL-23A mRNA” value was 5.43 fold and 24.25 fold and 5.70 fold and 9.99 fold and 17.03 fold and 18.64 fold. Also, the “ΔCt (Lesion), IL-23A mRNA” value with IL-23A mRNA (setting [1]) is 6.59 and 4.85 and 6.52 and 5.71 and 4.94 and 4.81.

The values above are taken from US7989165B2, “Tape stripping methods for analysis of skin disease and pathological skin state” (DermTech International, priority 2004, dated 2011).
